Experimental data from PubChem BioAssay (NCI).
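Five compound concentrations were applied to cells in 96-well plates for 48 hours; endpoints were derived by simple linear interpolation of the resulting dose-response curve. Abbreviation: GI50, concentration required for 50% inhibition of growth. TGI: concentration producing complete growth inhibition.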

Legend:
Test in all cases: NCI tumour cell line growth inhibition, 48 h
OVCAR-8 ovarian = test system: OVCAR-8 ovarian
IGROV1 ovarian = test system: IGROV1 ovarian
NCI-H23 lung = test system: NCI-H23 lung
LOX IMVI melanoma = test system: LOX IMVI melanoma
SK-MEL-2 melanoma = test system: SK-MEL-2 melanoma
HT29 colon = test system: HT29 colon
K-562 leukemia = test system: K-562 leukemia
UACC-257 melanoma = test system: UACC-257 melanoma
OVCAR-4 ovarian = test system: OVCAR-4 ovarian
CAKI-1 renal = test system: CAKI-1 renal
786-0 renal = test system: 786-0 renal
SK-MEL-28 melanoma = test system: SK-MEL-28 melanoma
SW-620 colon = test system: SW-620 colon
A549 NSCLC = test system: A549 NSCLC
U251 CNS = test system: U251 CNS
TK-10 renal = test system: TK-10 renal
BT-549 breast = test system: BT-549 breast
SF-539 CNS = test system: SF-539 CNS
MOLT-4 leukemia = test system: MOLT-4 leukemia
SF-268 CNS = test system: SF-268 CNS
MDA-MB-435 = test system: MDA-MB-435
SK-OV-3 ovarian = test system: SK-OV-3 ovarian
PC-3 prostate = test system: PC-3 prostate
MCF7 breast = test system: MCF7 breast
ACHN renal = test system: ACHN renal
HCC-2998 colon = test system: HCC-2998 colon
COLO 205 colon = test system: COLO 205 colon
HS 578T breast = test system: HS 578T breast
OVCAR-5 ovarian = test system: OVCAR-5 ovarian

SMILES: COc1ccccc1/C=C/C(=O)c1ccc(OC)c(S(N)(=O)=O)c1
- TGI (OVCAR-8 ovarian): 7.16 µM
- GI50 (IGROV1 ovarian): 3.08 µM
- TGI (IGROV1 ovarian): 11.5 µM
- GI50 (NCI-H23 lung): 2.29 µM
- TGI (NCI-H23 lung): 9.56 µM
- GI50 (LOX IMVI melanoma): 1.98 µM
- TGI (LOX IMVI melanoma): 5.27 µM
- GI50 (SK-MEL-2 melanoma): 10.4 µM
- TGI (SK-MEL-2 melanoma): 22.3 µM
- GI50 (HT29 colon): 3.06 µM
- TGI (HT29 colon): 10.2 µM
- GI50 (K-562 leukemia): 0.349 µM
- TGI (K-562 leukemia): 14.6 µM
- GI50 (UACC-257 melanoma): 5.96 µM
- TGI (UACC-257 melanoma): 19.6 µM
- GI50 (OVCAR-4 ovarian): 3.65 µM
- TGI (OVCAR-4 ovarian): 16.4 µM
- GI50 (CAKI-1 renal): 3.18 µM
- TGI (CAKI-1 renal): 13 µM
- GI50 (786-0 renal): 3.25 µM
- TGI (786-0 renal): 12.9 µM
- GI50 (SK-MEL-28 melanoma): 4.49 µM
- TGI (SK-MEL-28 melanoma): 15.8 µM
- GI50 (SW-620 colon): 2.86 µM
- TGI (SW-620 colon): 10.8 µM
- GI50 (A549 NSCLC): 3.11 µM
- TGI (A549 NSCLC): 13 µM
- GI50 (U251 CNS): 2.58 µM
- TGI (U251 CNS): 10.7 µM
- GI50 (TK-10 renal): 3.54 µM
- TGI (TK-10 renal): 13 µM
- GI50 (BT-549 breast): 2.58 µM
- TGI (BT-549 breast): 8.21 µM
- GI50 (SF-539 CNS): 2.25 µM
- TGI (SF-539 CNS): 4.96 µM
- GI50 (MOLT-4 leukemia): 2.4 µM
- TGI (MOLT-4 leukemia): 8.35 µM
- GI50 (SF-268 CNS): 3.28 µM
- TGI (SF-268 CNS): 12 µM
- GI50 (MDA-MB-435): 2.98 µM
- TGI (MDA-MB-435): 11.5 µM
- GI50 (SK-OV-3 ovarian): 7.25 µM
- TGI (SK-OV-3 ovarian): 20.4 µM
- GI50 (PC-3 prostate): 4.81 µM
- TGI (PC-3 prostate): 18.5 µM
- GI50 (MCF7 breast): 2.67 µM
- TGI (MCF7 breast): 11.3 µM
- GI50 (ACHN renal): 3.38 µM
- TGI (ACHN renal): 12.4 µM
- GI50 (HCC-2998 colon): 2.65 µM
- TGI (HCC-2998 colon): 12 µM
- GI50 (COLO 205 colon): 3.54 µM
- TGI (COLO 205 colon): 13.4 µM
- GI50 (HS 578T breast): 3.27 µM
- TGI (HS 578T breast): 20 µM
- GI50 (OVCAR-5 ovarian): 2.2 µM
- TGI (OVCAR-5 ovarian): 6.14 µM
